From the NIST ThermoML archive (doi:10.1021/je900550v)

Settings: 101.33 kPa, Liquid; for speed of sound: Pulse-echo method; for mass density: Vibrating tube method

CCC(=O)[O-].C[NH2+]CCO [2-hydroxy-N-methylethanaminium propionate]
Settings | mass density [kg/m3] | speed of sound [m/s] | viscosity [mPa·s]
278.15 K | 1084.28 | 1752.4 | –
278.4 K | 1084.12 | 1751.6 | –
278.65 K | 1083.96 | 1750.7 | –
278.9 K | 1083.8 | 1749.8 | –
279.15 K | 1083.63 | 1749 | –
279.4 K | 1083.47 | 1748.1 | –
279.65 K | 1083.31 | 1747.3 | –
279.9 K | 1083.15 | 1746.5 | –
280.15 K | 1082.98 | 1745.6 | –
280.4 K | 1082.82 | 1744.8 | –
280.65 K | 1082.66 | 1744 | –
280.9 K | 1082.5 | 1743.1 | –
281.15 K | 1082.34 | 1742.3 | –
281.4 K | 1082.18 | 1741.5 | –
281.65 K | 1082.02 | 1740.7 | –
281.9 K | 1081.86 | 1739.8 | –
282.15 K | 1081.69 | 1739 | –
282.4 K | 1081.53 | 1738.2 | –
282.65 K | 1081.37 | 1737.4 | –
282.9 K | 1081.21 | 1736.6 | –
283.15 K | 1081.05 | 1735.8 | –
283.4 K | 1080.88 | 1735 | –
283.65 K | 1080.72 | 1734.2 | –
283.9 K | 1080.56 | 1733.4 | –
284.15 K | 1080.39 | 1732.6 | –
284.4 K | 1080.23 | 1731.8 | –
284.65 K | 1080.07 | 1731 | –
284.9 K | 1079.91 | 1730.2 | –
285.15 K | 1079.75 | 1729.4 | –
285.4 K | 1079.59 | 1728.5 | –
285.65 K | 1079.42 | 1727.8 | –
285.9 K | 1079.25 | 1727 | –
286.15 K | 1079.09 | 1726.2 | –
286.4 K | 1078.93 | 1725.5 | –
286.65 K | 1078.76 | 1724.7 | –
286.9 K | 1078.6 | 1723.9 | –
287.15 K | 1078.44 | 1723.1 | –
287.4 K | 1078.28 | 1722.4 | –
287.65 K | 1078.11 | 1721.6 | –
287.9 K | 1077.95 | 1720.8 | –
288.15 K | 1077.79 | 1720 | 432.13
288.4 K | 1077.62 | 1719.3 | –
288.65 K | 1077.46 | 1718.5 | –
288.9 K | 1077.3 | 1717.7 | –
289.15 K | 1077.13 | 1717 | –
289.4 K | 1076.97 | 1716.2 | –
289.65 K | 1076.81 | 1715.4 | –
289.9 K | 1076.64 | 1714.7 | –
290.15 K | 1076.48 | 1713.9 | –
290.4 K | 1076.31 | 1713.2 | –
290.65 K | 1076.15 | 1712.4 | 359.06
290.9 K | 1075.98 | 1711.6 | –
291.15 K | 1075.82 | 1710.9 | –
291.4 K | 1075.65 | 1710.1 | –
291.65 K | 1075.49 | 1709.3 | –
291.9 K | 1075.33 | 1708.6 | –
292.15 K | 1075.16 | 1707.8 | –
292.4 K | 1075 | 1707.1 | –
292.65 K | 1074.83 | 1706.4 | –
292.9 K | 1074.67 | 1705.6 | –
293.15 K | – | 1704.9 | 301.63
